{
  "source": "patent US8974819B2",
  "about": "“Sustained-release chitosan capsules comprising chitosan and phytic acid” (priority 2007, dated 2015)",
  "key": {"[1]": {"system": "diabetic rats", "test": "Blood glucose lowering effect by dosage for 4 hours in diabetic rats", "assay_type": "in vivo, Male Sprague-Dawley (SD) rats", "details": "diabetic SD rats, subcutaneous injection (PC, positive control)"}, "[2]": {"system": "diabetic mouse", "test": "Blood glucose level after administration to diabetic mice", "assay_type": "in vivo, Balb-c strain male mice", "details": "subcutaneous injection, 1 IU/kg", "protocol": "Six-week old Balb-c strain male mice were used. Streptozotocin was dissolved in a 0.1 mM sodium chloride buffer at a concentration of 30 mg/mL, followed by subcutaneously injecting into the […] at a dosage of 65 mg/kg so as to induce diabetes. The male mice showing a blood glucose level of 470±40 mg/dL over two consecutive days were selected and the experiment was performed. The diabetic mice were starved for 12 hours before the experiment was started.\nAfter the capsules showing the most preferable result were selected from Experimental Example 7 and Comparative Experimental Example 5, respectively, each capsule was orally administered to the diabetic mouse established in Preparative Example 4 and a blood glucose level was measured. […]\nAAC (area above the blood glucose level-time curve) is to be numerically expressed the area above the blood glucose level-time curve by using a linear trapezoidal rule. […] F is relative bioavailability of a drug, which is calculated by multiplying the AAC value in case of the oral administration of insulin by the amount of insulin subcutaneously injected, dividing the resulting value by the AAC value in case of the subcutaneous injection of insulin, and dividing the resulting value by the amount of insulin orally administered. […]"}},
  "data": [
    {"substance": "Insulin", "values": [
      {"measurement": "blood glucose level", "setting": "[1]", "value": "most rapidly decreased"},
      {"measurement": "blood glucose level", "setting": "[2]", "value": "rapidly decreased"}
    ]}
  ]
}
